Experimental data: patent publication US20210038515A1 (Azurity Pharmaceuticals, Inc., priority 2014, published 2021)

How the values were obtained:
in vitro = details: human, Caco-2
Protocol: Caco-2 cells are used as an in vitro model of the human intestinal epithelium and permit assessment of the intestinal permeability of potential drugs. Vancomycin is added to either the apical or basolateral side of a confluent monolayer of Caco-2 cells and permeability is measured by monitoring the appearance of the Vancomycin on the opposite side of the monolayer using LC-MS/MS. When performing a bi-directional assay, the efflux ratio (ER) is calculated from the ratio of B->A and A->B permeabilities.
The permeability measure of vancomycin in the apical to basolateral (A->B) and basolateral to apical (B->A) direction across Caco-2 cells, and to determine the efflux ratio.

[1] = orally-administered; cited from earlier work
C. difficile = assay: MIC by reference agar dilution method (CLSI M11-A8) of stored vancomycin preparations; assay type: cell-based, Clostridium difficile; details: for MIC, average of triplicate: Fresh
[2] = system: Staphylococcus aureus ATCC 29213; assay: MIC by reference agar dilution method (CLSI M11-A8), quality control strain; assay type: cell-based; details: Fresh
Protocol: The vancomycin hydrochloride solution of the invention and the IV solution were reconstituted to a concentration of 25 mg/ml. […] The MICs were determined by the reference agar dilution method (CLSI M11-A8). All serial two-fold dilutions were prepared on the same day and added to molten agar to prepare plates.
The in vitro activity was tested for three different preparations of vancomycin freshly reconstituted, and stored at ambient and at refrigerated temperatures. The C. difficile strains were selected to represent the most frequently encountered ribotypes.
Plates were prepared by adding 1 ml of lysed sheep blood and two mls of the twofold dilutions of the vancomycin preparations to molten agar. Plates were mixed, poured and allowed to harden. Suspensions of the organisms were applied to the plates using a Steers replicating device that delivered approximately 10^5 cfu/spot. Each preparation was tested in triplicate. Plates were incubated at 37° C. for 48 h.
Plates were examined for growth.

Clostridium difficile = assay: Agar dilution MIC of vancomycin preparations (Sigma, Cutis), diluent, Na benzoate and Na citrate; assay type: cell-based; details: tested separately at concentrations exceeding those present in the diluent
Protocol: Introduction: The purpose of the study was to compare the MICs obtained with the formulation of vancomycin HCL of the invention (Cutis) to formulations obtained using a vancomycin HCL reference standard powder obtained from Sigma. The Example also involves the analysis of a solution or diluent to determine if it has antimicrobial activity at the concentrations present in the agar dilution test.
The C. difficile were tested by agar dilution according to the procedures in the Clinical and Laboratory Standards Institute. 2012. Methods for antimicrobial susceptibility testing of anaerobic bacteria; approved standard-seventh edition.
Other anaerobic organisms included clinical isolates of Bifidobacterium adolescentis and Bacteroides fragilis. Clostridium difficile ATCC 700057 was included as a quality control strain.
The C. difficile isolates were recovered from patients with CDI during the past two years and stored at −70° C. in 20% skim milk. Ribotyping was performed by another reference laboratory. The strains were taken from the freezer and subcultured at least twice to ensure purity and good growth.
On the day of testing, they were suspended in Brucella broth to the turbidity of the 0.5 McFarland standard for testing.
Stock solution of the Sigma vancomycin was prepared in water and stored at −70° C. On the day of testing, it was thawed and further diluted in water to obtain the desired range of 16-0.125 μg/ml. The Cutis vancomycin (25 mg/ml) was reconstituted on the day of testing and further diluted for a final range of 16-0.125 μg/ml in the test. The antimicrobials were added to molten Brucella agar supplemented with vitamin K and hemin to prepare the plates. Drug-free growth controls were included for testing before and after each set of plates. All testing was done in triplicate.
The organisms were pipetted into the wells of the Steers replicator head and applied to the plates with the multi-pronged replicator. The final concentration of organisms was ˜10^5 CFU/spot.
The plates were incubated in the anaerobic chamber incubator for 44 h and examined for growth.
The Cutis diluent comprises: water, about 0.12% (w/v) citric acid (anhydrous), 0.2% (w/v) sucralose, about 0.05% (w/v) artificial grape flavor, 0.1% (w/v) sodium benzoate, about 0.0002% (w/v) D&C Yellow No. 10 and about 0.000038% (w/v) FD&C Red No. 40.

Compound: COCCc1ccc(OCC(O)CNC(C)C)cc1 (stereo not shown) [Metoprolol]
- Papp A→B (in vitro): 11.6 ×10⁻⁶ cm/s
- Papp B→A (in vitro): 30 ×10⁻⁶ cm/s

Compound: CN[C@H](CC(C)C)C(=O)N[C@H]1C(=O)N[C@@H](CC(N)=O)C(=O)N[C@H]2C(=O)N[C@H]3C(=O)N[C@H](C(=O)N[C@H](C(=O)O)c4cc(O)cc(O)c4-c4cc3ccc4O)[C@H](O)c3ccc(c(Cl)c3)Oc3cc2cc(c3O[C@@H]2O[C@H](CO)[C@@H](O)[C@H](O)[C@H]2O[C@H]2C[C@](C)(N)[C@H](O)[C@H](C)O2)Oc2ccc(cc2Cl)[C@H]1O [vancomycin]
- absorption [1]: cannot be absorbed
- concentrations in the colon [1]: 500 to 1000 µg/mL

Compound: CN[C@H](CC(C)C)C(=O)N[C@H]1C(=O)N[C@@H](CC(N)=O)C(=O)N[C@H]2C(=O)N[C@H]3C(=O)N[C@H](C(=O)N[C@H](C(=O)O)c4cc(O)cc(O)c4-c4cc3ccc4O)[C@H](O)c3ccc(c(Cl)c3)Oc3cc2cc(c3O[C@@H]2O[C@H](CO)[C@@H](O)[C@H](O)[C@H]2O[C@H]2C[C@](C)(N)[C@H](O)[C@H](C)O2)Oc2ccc(cc2Cl)[C@H]1O.Cl [Reference standard]
- MIC, average of triplicate (C. difficile; ATCC 7000057 QC (C. difficile)): 1 µg/mL
- MIC, average of triplicate (C. difficile; RMA 24504, ribotype 027): 1 µg/mL
- MIC, average of triplicate (C. difficile; RMA 24510, ribotype 027): 1 µg/mL
- MIC, average of triplicate (C. difficile; RMA 24519, ribotype 027): 1 µg/mL
- MIC, average of triplicate (C. difficile; RMA 24527, ribotype 014): 1 µg/mL
- MIC, average of triplicate (C. difficile; RMA 24529, ribotype 014): 1 µg/mL
- MIC, average of triplicate (C. difficile; RMA 24541, ribotype 020): 1 µg/mL
- MIC, average of triplicate (C. difficile; RMA 24543, ribotype 020): 1 µg/mL
- MIC, average of triplicate (C. difficile; RMA 24547, ribotype 014): 1 µg/mL
- MIC, average of triplicate (C. difficile; RMA 24561, ribotype 078): 1 µg/mL
- MIC, average of triplicate (C. difficile; RMA 24567, ribotype 020): 1 µg/mL
- MIC, average of triplicate (C. difficile; RMA 24575, ribotype 078): 1 µg/mL
- MIC, average of triplicate (C. difficile; RMA 24594, ribotype 106): 4 µg/mL
- MIC, average of triplicate (C. difficile; RMA 24601, ribotype 106): 2 µg/mL
- MIC, average of triplicate (C. difficile; RMA 24605, ribotype 002): 1 µg/mL
- MIC, average of triplicate (C. difficile; RMA 24607, ribotype 106): 1 µg/mL
- MIC, average of triplicate (C. difficile; RMA 24608, ribotype 002): 1 µg/mL
- MIC, average of triplicate (C. difficile; RMA 24615, ribotype 005): 2 µg/mL
- MIC, average of triplicate (C. difficile; RMA 24628, ribotype 012): 1 µg/mL
- MIC, average of triplicate (C. difficile; RMA 24641, ribotype 001/072): 1 µg/mL
- MIC, average of triplicate (C. difficile; RMA 24643, ribotype 001/072): 1 µg/mL
- MIC, average of triplicate (C. difficile; RMA 24646, ribotype 001/072): 1 µg/mL
- MIC, average of triplicate (C. difficile; RMA 24655, ribotype 005): 2 µg/mL
- MIC, average of triplicate (C. difficile; RMA 24678, ribotype 012): 4 µg/mL
- MIC, average of triplicate (C. difficile; RMA 24683, ribotype 027): 2 µg/mL
- MIC, average of triplicate (C. difficile; RMA 24690, ribotype 027): 4 µg/mL
- Average MIC (geometric mean, all 25 strains) (C. difficile; reference standard powder stock solution stored at −70 C): 1.5 µg/mL
- MIC, average of triplicate ([2]; ATCC 29213 SA QC (S. aureus)): 2 µg/mL
- vancomycin MIC from triplicate test, best of 3 values ([2]; ATCC 29213 SA QC): 2 µg/mL

Compound: O=C([O-])c1ccccc1.[Na+] [Na benzoate]
- growth inhibition (Clostridium difficile): no inhibition

Compound: O=C([O-])CC(O)(CC(=O)[O-])C(=O)[O-].[Na+].[Na+].[Na+] [Na citrate]
- growth inhibition (Clostridium difficile): no inhibition

Compound: CNC(=C[N+](=O)[O-])NCCSCc1ccc(CN(C)C)o1 [Ranitidine]
- Papp A→B (in vitro): 0.3 ×10⁻⁶ cm/s
- Papp B→A (in vitro): 1.5 ×10⁻⁶ cm/s
